Results on 16 molecules are retold here after patent publication US20180362485A1, “N-HYDROXYFORMAMIDE COMPOUNDS AND COMPOSITIONS COMPRISING THEM FOR USE AS BMP l, TLL1 AND/OR TLL2 INHIBITORS” (GlaxoSmithKline Intellectual Property (No. 2) Limited, priority 2015, published 2018).

Structures can show the parent of a compound that is named as a salt. Where only a bound is given, the exact number is not on record here.

The first experiment has as its system Generation of Procollagen I C-Terminal Propeptide (PICP). The experiment is described as follows: Cell-based inhibition assay of generation of procollagen I C-terminal propeptide (PICP), PICP ELISA. As to conditions: Cardiac fibroblast, human cardiac fibroblasts, 24 to 48 hr, read-out: pIC50, PICP cellular inhibition assay (converted). How it is done:
(§1) An adaptation of the collagen deposition assay described by Chen, C. Z. C., et al., British Journal of Pharmacology, 2009, 158, 1196-1209 is used to examine effect of compounds on procollagen I processing and collagen deposition. In the adapted assay, human cardiac fibroblasts are utilized. Processing of procollagen I is determined by a PICP ELISA assay and deposition of mature collagen is determined by immunostaining.
(§2) Human cardiac fibroblasts are cultured and maintained until passage 6 in FGM-3 media (Lonza, #CC-3132) in a 37° C. humidified incubator with 5% CO2. They are then seeded in 96-well black wall, clear bottom plates at 10,000 to 15,000 cells per well in eagle's minimum essential media (EMEM, ATCC #30-2003) containing 10% fetal bovine serum (FBS, Life Technologies #10082147), 1% Glutamax (Life Technologies #35050061) and 1% Penicillin and Streptomycin (Life Technologies #15070063). These cultures are placed in 37° C. incubator. The next day, media is removed by aspiration and cells are rinsed with phosphate buffered saline. Crowding media (also called ficoll media) is prepared by adding 112.5 mg/ml of ficoll70 and 75 mg/ml ficoll400 (GE healthcare #17-0310-10 and 17-0300-10, respectively), 100 μM ascorbic acid, 1% Glutamax and 1% Penicillin and Streptomycin to EMEM media. Test compounds (dissolved in DMSO) are diluted into crowding media and then added to the cells. Final concentration of DMSO in crowding media is less than 0.3%. Cells are treated for 24 to 48 hr in a 37° C. incubator. At the end of the treatment period, cell media are collected. The level of PICP in the media is determined by a PICP ELISA assay (Quidel #8003) following the manufacturer's protocol. Potencies of test compounds are calculated by fitting PICP levels, relative to untreated controls, to log (inhibitor) vs. response equation using Graphpad Prism software 5.0 and expressed as pIC50.
For `CCCCC[C@@H](C(=O)NCNC(=O)c1ccc(-c2ccc(C(=O)N[C@@H](CC(=O)O)C(=O)OCC)c(OCC)c2)o1)[C@@H](CC)N(O)C=O` [Example 113, (S)-4-ethoxy-3-(2-ethoxy-4-(5-((((R)-2-((R)-1-(N-hydroxyformamido)propyl)heptanamido)methyl)carbamoyl)furan-2-yl)benzamido)-4-oxobutanoic acid], the IC50 is under 398 nM.
For `CCCCC[C@@H](C(=O)NCNC(=O)c1ccc(-c2ccc(C(=O)OCC)cc2)o1)[C@@H](CC)N(O)C=O` [Example 100, ethyl 4-(5-((((R)-2-((R)-1-(N-hydroxyformamido)propyl)heptanamido)methyl)carbamoyl)furan-2-yl)benzoate], the IC50 is under 398 nM.
Still for that read-out and setting: in the case of `CCCCC[C@@H](C(=O)NCNC(=O)c1ccc(-c2cc(OCC)cc(P(=O)(O)OCOC(=O)OC(C)C)c2)o1)[C@@H](CC)N(O)C=O` [Example 302, (((3-ethoxy-5-(5-((((R)-2-((R)-1-(N-hydroxyformamido)propyl)heptanamido)methyl)carbamoyl)furan-2-yl)phenyl) (hydroxy)phosphoryl)oxy)methyl isopropyl carbonate] it was under 398 nM; in that of `CCCCC[C@@H](C(=O)NCNC(=O)c1ccc(-c2ccc(C(=O)N[C@@H](CC(=O)O)C(=O)OC(C)(C)C)c(OCC)c2)o1)[C@@H](CC)N(O)C=O` [Example 114, (S)-4-(tert-butoxy)-3-(2-ethoxy-4-(5-((((R)-2-((R)-1-(N-hydroxyformamido)propyl)heptanamido)methyl)carbamoyl)furan-2-yl)benzamido)-4-oxobutanoic acid], under 398 nM; in that of `CCCCC[C@@H](C(=O)NCNC(=O)c1ccc(-c2ccc(C(=O)OCCN(C)C)cc2)o1)[C@@H](CC)N(O)C=O` [Example 104, 2-(dimethylamino) ethyl 4-(5-((((R)-2-((R)-1-(N-hydroxyformamido)propyl)heptanamido)methyl)carbamoyl)furan-2-yl)benzoate], under 398 nM.
Turning to `CCCCC[C@@H](C(=O)NCNC(=O)c1ccc(-c2ccc(C(=O)N[C@@H](CC(=O)O)C(=O)OCOC(=O)c3ccccc3)c(OCC)c2)o1)[C@@H](CC)N(O)C=O` [Example 116, (S)-4-((benzoyloxy)methoxy)-3-(2-ethoxy-4-(5-((((R)-2-((R)-1-(N-hydroxyformamido)propyl)heptanamido)methyl)carbamoyl)furan-2-yl)benzamido)-4-oxobutanoic acid], the IC50 is under 398 nM.
Still for that read-out and setting: next, `CCCCC[C@@H](C(=O)NCNC(=O)c1ccc(-c2cc(OCC)cc(P(=O)(O)Oc3ccccc3)c2)o1)[C@@H](CC)N(O)C=O` [Example 400, Phenyl Hydrogen (3-ethoxy-5-(5-((((R)-2-((R)-1-(N-hydroxyformamido)propyl)heptanamido)methyl)carbamoyl)furan-2-yl)phenyl)phosphonate, Ammonia Salt]: under 398 nM; `CCCCC[C@@H](C(=O)NCNC(=O)c1ccc(-c2ccc(C(=O)OCCCC)cc2)o1)[C@@H](CC)N(O)C=O` [Example 101, butyl 4-(5-((((R)-2-((R)-1-(N-hydroxyformamido)propyl)heptanamido)methyl)carbamoyl)furan-2-yl)benzoate]: under 398 nM.
Still for that read-out and setting: in the case of `CCCCC[C@@H](C(=O)NCNC(=O)c1ccc(-c2ccc(C(=O)N[C@@H](CC(=O)OCC)C(=O)OCC)c(OCC)c2)o1)[C@@H](CC)N(O)C=O` [Example 143, (S)-diethyl 2-(2-ethoxy-4-(5-((((R)-2-((R)-1-(N-hydroxyformamido)propyl)heptanamido)methyl)carbamoyl)furan-2-yl)benzamido)succinate] it was under 398 nM.
For the molecule `CCCCC[C@@H](C(=O)NCNC(=O)c1ccc(-c2cc(OCC)cc(P(=O)(OCOC(C)=O)OCOC(C)=O)c2)o1)[C@@H](CC)N(O)C=O` [Example 115, (((3-ethoxy-5-(5-((((R)-2-((R)-1-(N-hydroxyformamido)propyl)heptanamido)methyl)carbamoyl)furan-2-yl)phenyl)phosphoryl)bis(oxy))bis (methylene) diacetate], the IC50 was under 398 nM.
Take `CCCCC[C@@H](C(=O)NCNC(=O)c1ccc(-c2ccc(C(=O)N[C@@H](CC(=O)OC(C)(C)C)C(=O)OC(C)(C)C)c(OCC)c2)o1)[C@@H](CC)N(O)C=O` [Example 112, (S)-di-tert-butyl 2-(2-ethoxy-4-(5-((((R)-2-((R)-1-(N-hydroxyformamido)propyl)heptanamido)methyl)carbamoyl)furan-2-yl)benzamido) succinate]: the IC50 is under 398 nM.
Regarding `CCCCC[C@@H](C(=O)NCNC(=O)c1ccc(-c2ccc(C(=O)N[C@@H](CC(=O)OC)C(=O)OC)c(OCC(=O)OC)c2)o1)[C@@H](CC)N(O)C=O` [Example 142, (S)-dimethyl 2-(4-(5-((((R)-2-((R)-1-(N-hydroxyformamido)propyl)heptanamido)methyl)carbamoyl)furan-2-yl)-2-(2-methoxy-2-oxoethoxy)benzamido)succinate], the IC50 was under 398 nM.

Another experiment relates to deposition of mature collagen. The experiment is described as follows: Cell-based inhibition assay of mature collagen deposition (immunostaining). As to conditions: Cardiac fibroblast; human cardiac fibroblasts, immunostaining of mature collagen I; read-out: pIC50, mature collagen cellular inhibition assay (converted). How it is done:
as §1, §2
For some compounds, deposition of mature collagen is measured by immunostaining in addition to PICP levels. At the end of the treatment period, cells on culture plate are fixed with 100% methanol (prechilled to −20° C.) for 10 min. Then the cells are immunostained with mouse anti-mature collagen I antibody (1:500 dilution, Sigma#C2456), anti-mouse secondary antibody Alexa647 (1:500 dilution, Invitrogen#A21236) and Hoechst (for nuclei, 2 μg/ml, Invitrogen#H3596). Fluorescent image acquisition is done using the Operetta High Content Imaging system (Perkin Elmer). For each image field, the intensity of mature collagen staining is normalized with the number of nuclei. Normalized collagen levels are used to calculate the potency of test compounds with Graphpad Prism software, as described above.
Take `CCCCC[C@@H](C(=O)NCNC(=O)c1ccc(-c2cc(OCC)cc(P(=O)(O)O)c2)o1)[C@@H](CC)N(O)C=O` [WO2015/104684 Example 96, (3-ethoxy-5-(5-((((R)-2-((R)-1-(N-hydroxyformamido)propyl)heptanamido)methyl)carbamoyl)furan-2-yl)phenyl)phosphonic acid]: the IC50 was under 1000 nM.
Take `CCCCC[C@@H](C(=O)NCNC(=O)c1ccc(-c2ccc(C(=O)NCP(=O)(O)O)c(OCC)c2)o1)[C@@H](CC)N(O)C=O` [WO2015/104684 Example 139, ((2-ethoxy-4-(5-((((R)-2-((R)-1-(N-hydroxyformamido)propyl)heptanamido)methyl)carbamoyl)furan-2-yl)benzamido)methyl)phosphonic acid]: the IC50 was under 1000 nM.
Take `CCCCC[C@@H](C(=O)NCNC(=O)c1ccc(-c2ccc(C(=O)N[C@@H](CC(=O)O)C(=O)O)c(OCC(=O)O)c2)o1)[C@@H](CC)N(O)C=O` [WO2015/104684 Example 126, (S)-2-(2-(carboxymethoxy)-4-(5-((((R)-2-((R)-1-(N-hydroxyformamido)propyl)heptanamido)methyl)carbamoyl)furan-2-yl)benzamido)succinic acid]: the IC50 is under 1000 nM.
For `CCCCC[C@@H](C(=O)NCNC(=O)c1ccc(-c2ccc(C(=O)N[C@@H](CC(=O)O)C(=O)O)c(OCC)c2)o1)[C@@H](CC)N(O)C=O` [WO2015/104684 Example 74, (S)-2-(2-ethoxy-4-(5-((((R)-2-((R)-1-(N-hydroxyformamido)propyl)heptanamido)methyl)carbamoyl)furan-2-yl)benzamido)succinic acid], the IC50 is under 1000 nM.
